Reference: patent publication US20160009752A1, “[…]-OXIMINO-AMINOALKYLETHERS AND PROCESS FOR PREPARATION THEREOF, USEFUL AS ANTIDIABETIC AND […] AGENTS” (COUNCIL OF SCIENTIFIC & INDUSTRIAL RESEARCH, priority 2013, published 2016)

Test system: Triton-induced hyperlipidemic rat model
Test: Antidyslipidaemic activity in Triton-induced hyperlipidemic rat model
Format: in vivo
Settings: summary of Tables 1-2
Procedure: Male charles foster rats weighing around 200 to 225 g were divided into control, dyslipidemic and dyslipidemic plus drug treated groups containing six animals in each group. Dyslipidemia was induced by administration of triton WR-1339 (200 mg/kg intraperitoneally). All animals were maintained on a special pellet diet and water ad libitum. Test compounds and standard drug (Gemfibrozil) were macerated in 0.2% aqueous gum acacia. The fine suspension of test compounds and standard drug were fed orally to the respective groups at the dose of 100 mg/kg simultaneously with triton WR-1339 in drug treated group. The animals of control group received the same amount of gum acacia by similar route of administration. […]
Total plasma cholesterol was estimated using the kit and instructions as provided by the manufacturer Roche Diagnostics. […] The hydrogen peroxide combines with hydroxybenzoic acid (HBA) and 4-aminoantipyrine (4-AAA) in the presence of peroxidase (POD) to form a red chromophore (quinoneimine) which is quantitated at 500-505 nm. […]
Total plasma triglycerides were estimated using the kit and instructions as provided by the manufacture i.e. Roche Diagnostics. […] In the presence of peroxidase, hydrogen peroxide oxidatively couples with 4-aminoantipyrine and 4-chlorophenol to produce red chromophore quinonimine which is quantitated at 500-505 nm. […]

Row | Structure (SMILES) | antidyslipidemic / antidiabetic activity, summary in words
1 | CCCCO/N=C(/C)C1=CC[C@H]2[C@@H]3CC=C4C[C@@H](O)CC[C@]4(C)[C@H]3CC[C@]12C [Compound 10a, 3β-Hydroxy-pregna-5,16-dien-20-one-O-n-butyl-oxime] | mainly antidyslipidemic activity
2 | C/C(=N/OCc1ccccc1)C1=CC[C@H]2[C@@H]3CC=C4C[C@@H](O)CC[C@]4(C)[C@H]3CC[C@]12C [Compound 10b, 3β-Hydroxy-pregna-5,16-dien-20-one-O-benzyl-oxime] | mainly antidyslipidemic activity
